Legend:
[1] = system: patients with MS (detrusor hyperreflexia); test: separate study: RTX instillation in patients with MS; type: in vivo, human
Experimental: A separate study was undertaken with administration of 0.1 μM RTX to a group of 6 patients with MS. […] One patient was bedridden with an indwelling catheter. Despite the catheter, occasional bursts of detrusor hyperreflexia caused explosive expulsions of urine such that urine leaked around the catheter. No urinary dynamic measurements were taken but 100 ml of 1 μM solution was administered. […] The remaining four patients were all on crutches or in wheelchairs. They were on scheduled intermittent self-catheterizations and remained so.

[2] = system: rat urinary bladders; conditions: anesthetized rats; repeated perfusions; cited from earlier work
[3] = system: bladder afferents; conditions: rats; intravesicular 10-100 μmol; cited from earlier work
[4] = system: vanilloid receptor-mediated release of tachykinins in the rat urinary bladder; conditions: rat urinary bladder; cited from earlier work
[5] = solubility and stability of RTX solutions; type: physicochemical
Experimental: The molecular weight of RTX is 628.72 for the clinical studies described herein. A 10 μM stock solution, 6.3 μg/mL was prepared by dissolving 6.32 mg of 99.5% pure RTX in 1000 mL absolute ethanol. Solutions for therapeutic use were diluted from the ethanolic stock solution into sterile normal saline (0.9% w/v NaCl) or a saline-ethanol mixture such that the final solution was 10% (v/v) ethanol. Therapeutic efficacy was tested for RTX concentrations of 1 μM, 0.1 μM and 0.05 μM. […] Prior to administration, RTX solutions were sterilized by filtration.
However, the compounds are soluble in ethanol. Pure ethanol cannot be instilled into the bladder because it causes severe pain and irritation of the bladder mucosa. […] The foregoing solution, after filter sterilization, can be directly instilled into the urinary bladder. A typical instillation volume is 100 ml, although it is possible to instill somewhat larger or smaller volumes, as is understood in the art.

[6] = four MS patients, one month after treatment

## C=C(C)[C@]12C[C@@H](C)[C@@]34O[C@](Cc5ccccc5)(O[C@@H]1[C@@H]3C=C(COC(=O)Cc1ccc(O)c(OC)c1)C[C@]1(O)C(=O)C(C)=C[C@@H]41)O2 [RTX, resiniferatoxin]
[1]; even at a dose of 1.0 μM RTX
  side effects: No side effects, particularly no meaningful burning or irritation were observed
[1]; [6]
  Capacity: increased in all patients
  urine loss pressure: decreased in all four although minimally in two
[2]
  desensitizing effect of bladder perfusion: desensitization was occurring
[3]
  desensitization of bladder afferents: long-lasting desensitization of bladder afferents
[4]
  desensitization to repeated doses: Desensitization to repeated doses of RTX was observed
  potency relative to CAP: 1000 times
[5]; absolute ethanol, stored in the dark, preferably refrigerated
  stability of stock solution: stably maintained
[5]; completely aqueous medium, therapeutic dose
  solubility in water: insufficiently soluble in water
[5]; ethanolic stock and dilutions in saline, 10% (v/v) ethanol, 4° C., shielded from light
  stability of solutions: stable under refrigeration (4° C.) shielded from light
[5]; normal saline, not greater than 20% (v/v) ethanol
  solubility after dilution of ethanolic solution into aqueous medium: RTX remains in solution
